In one test the target is human MMP 8 (Homo sapiens, UniProt P22894). The test is described as follows: Ki determination with fluorogenic substrate MCA-Mat, human MMP8. Particulars: recombinant MMP 8 h at 0.03 nM, 100 μL, MCA-Mat 15 μM. The class given is biochemical. As for the experimental part: (§1) The inhibition constants Ki of compounds P1, P2, and P3 were determined in comparison to human MMPs 2, 3, 8, 9, 12, 13, 14 and to murine MMP12. Recombinant proteases were used in volumes of 100 μL at concentrations of 0.05, 0.3, 0.03, 0.05, 0.03, 0.015, and 0.5 nM respectively for human MMPs 2, 3, 8, 9, 12, 13, 14, and at a concentration of 0.1 nM for murine MMP12. […] Recall that the lower the Ki of a compound, the greater its potential for inhibiting the chosen target.
Sequence of human MMP 8 (P22894 101-467): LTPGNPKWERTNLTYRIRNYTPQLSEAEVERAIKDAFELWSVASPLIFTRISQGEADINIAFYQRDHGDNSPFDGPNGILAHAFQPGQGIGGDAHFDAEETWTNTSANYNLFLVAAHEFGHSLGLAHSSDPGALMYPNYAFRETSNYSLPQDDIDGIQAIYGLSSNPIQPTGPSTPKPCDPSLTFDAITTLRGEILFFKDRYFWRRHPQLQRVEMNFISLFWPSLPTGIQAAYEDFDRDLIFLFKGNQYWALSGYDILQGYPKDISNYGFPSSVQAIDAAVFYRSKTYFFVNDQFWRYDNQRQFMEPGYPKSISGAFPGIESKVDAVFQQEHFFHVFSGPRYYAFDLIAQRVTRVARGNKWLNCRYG

The next test addresses human MMP 14 (Homo sapiens, UniProt P50281). Description: Ki determination with fluorogenic substrate MCA-Mat, human MMP14. Type of test: biochemical. Particulars: recombinant MMP 14 h at 0.5 nM, 100 μL, MCA-Mat 15 μM. How it is done:
as §1

The next test addresses murine MMP12 (Mus musculus, UniProt P34960). Description: Ki determination with fluorogenic substrate MCA-Mat, murine MMP12. The class given is biochemical. Conditions: recombinant MMP 12 m at 0.1 nM, 100 μL, MCA-Mat 15 μM. As for the experimental part:
as §1

The target of another test is human MMP 13 (Homo sapiens, UniProt P45452). Description: Ki determination with fluorogenic substrate MCA-Mat, human MMP13. The class given is biochemical. Particulars: recombinant MMP 13 h at 0.015 nM, 100 μL, MCA-Mat 15 μM. How it is done:
as §1

A further test deals with T1, human MMP 2 (Homo sapiens, UniProt P08253).
T1 sequence (P08253 110-660): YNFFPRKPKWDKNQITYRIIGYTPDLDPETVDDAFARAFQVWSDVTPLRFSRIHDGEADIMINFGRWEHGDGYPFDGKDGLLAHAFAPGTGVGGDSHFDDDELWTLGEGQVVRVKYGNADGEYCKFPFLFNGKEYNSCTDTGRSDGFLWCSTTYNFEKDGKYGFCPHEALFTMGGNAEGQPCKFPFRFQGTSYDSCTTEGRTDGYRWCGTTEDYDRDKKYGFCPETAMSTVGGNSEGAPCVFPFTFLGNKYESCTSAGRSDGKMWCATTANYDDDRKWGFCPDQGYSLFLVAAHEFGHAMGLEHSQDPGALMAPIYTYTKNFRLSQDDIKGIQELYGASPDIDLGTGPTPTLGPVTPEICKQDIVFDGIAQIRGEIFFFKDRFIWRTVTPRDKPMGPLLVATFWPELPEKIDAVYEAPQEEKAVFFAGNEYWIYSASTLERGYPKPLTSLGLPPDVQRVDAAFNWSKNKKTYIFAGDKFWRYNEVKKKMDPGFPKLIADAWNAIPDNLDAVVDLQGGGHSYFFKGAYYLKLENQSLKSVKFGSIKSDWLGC
The test is described as follows: Ki determination with fluorogenic substrate MCA-Mat, human MMP2. Type of test: biochemical. Particulars: recombinant MMP 2 h at 0.05 nM, 100 μL, MCA-Mat 15 μM. As for the experimental part:
as §1

Another test deals with human MMP 3 (Homo sapiens, UniProt P08254). The test is described as follows: Ki determination with fluorogenic substrate MCA-Mat, human MMP3. Conditions: recombinant MMP 3 h at 0.3 nM, 100 μL, MCA-Mat 15 μM. The class given is biochemical. As for the experimental part: as §1
Sequence of human MMP 3 (P08254 100-477): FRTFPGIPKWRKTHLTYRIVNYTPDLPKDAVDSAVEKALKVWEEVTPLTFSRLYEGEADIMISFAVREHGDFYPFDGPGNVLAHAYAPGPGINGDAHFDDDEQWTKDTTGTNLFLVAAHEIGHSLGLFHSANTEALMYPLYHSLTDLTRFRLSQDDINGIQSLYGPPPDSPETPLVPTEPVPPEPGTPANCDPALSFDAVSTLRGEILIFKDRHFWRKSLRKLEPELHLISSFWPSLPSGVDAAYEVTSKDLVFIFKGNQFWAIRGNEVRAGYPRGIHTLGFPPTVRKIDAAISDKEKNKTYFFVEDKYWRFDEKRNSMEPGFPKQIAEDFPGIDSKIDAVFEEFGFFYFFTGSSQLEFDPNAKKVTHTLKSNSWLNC
Another test has as its target human MMP 9 (Homo sapiens, UniProt P14780). The test is described as follows: Ki determination with fluorogenic substrate MCA-Mat, human MMP9. Type of test: biochemical. Conditions: recombinant MMP 9 h at 0.05 nM, 100 μL, MCA-Mat 15 μM. As for the experimental part: as §1
Another test has as its target human MMP 12 (Homo sapiens, UniProt P39900). Description: Ki determination with fluorogenic substrate MCA-Mat, human MMP12. Conditions: recombinant MMP 12 h at 0.03 nM, 100 μL, MCA-Mat 15 μM. Type of test: biochemical. As for the experimental part: as §1
The next test addresses MMP12h (Homo sapiens, UniProt P39900). Particulars: read-out: Ki with respect to MMP12h; competitor used in strip and EIA tests; described in Devel et al, 2006; cited from earlier work.

Structures are written as SMILES.

In general, Ki refers to the equilibrium dissociation constant of an inhibitor or competing ligand from its target.

Sequence of human MMP 12 (P39900 106-470): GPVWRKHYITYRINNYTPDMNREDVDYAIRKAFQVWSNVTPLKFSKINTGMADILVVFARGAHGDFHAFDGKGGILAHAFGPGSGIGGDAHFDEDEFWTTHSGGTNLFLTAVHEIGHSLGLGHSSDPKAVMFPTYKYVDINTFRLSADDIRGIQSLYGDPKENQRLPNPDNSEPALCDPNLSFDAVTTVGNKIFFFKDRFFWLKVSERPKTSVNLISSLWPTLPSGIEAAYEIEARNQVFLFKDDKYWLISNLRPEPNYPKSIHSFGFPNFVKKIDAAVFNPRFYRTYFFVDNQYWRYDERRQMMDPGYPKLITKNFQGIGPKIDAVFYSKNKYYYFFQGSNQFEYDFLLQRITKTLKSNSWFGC
Sequence of murine MMP12 (P34960 110-473): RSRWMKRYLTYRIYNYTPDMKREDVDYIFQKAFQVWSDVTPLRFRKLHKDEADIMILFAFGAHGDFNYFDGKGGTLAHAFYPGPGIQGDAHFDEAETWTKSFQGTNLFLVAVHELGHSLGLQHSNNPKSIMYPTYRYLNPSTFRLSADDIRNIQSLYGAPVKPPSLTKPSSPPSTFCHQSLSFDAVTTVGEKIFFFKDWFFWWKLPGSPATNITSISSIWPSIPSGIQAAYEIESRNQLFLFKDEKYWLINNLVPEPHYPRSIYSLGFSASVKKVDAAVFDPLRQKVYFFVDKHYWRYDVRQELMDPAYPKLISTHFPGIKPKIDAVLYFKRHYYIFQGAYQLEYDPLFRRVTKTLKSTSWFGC
Sequence of human MMP 9 (P14780 94-707): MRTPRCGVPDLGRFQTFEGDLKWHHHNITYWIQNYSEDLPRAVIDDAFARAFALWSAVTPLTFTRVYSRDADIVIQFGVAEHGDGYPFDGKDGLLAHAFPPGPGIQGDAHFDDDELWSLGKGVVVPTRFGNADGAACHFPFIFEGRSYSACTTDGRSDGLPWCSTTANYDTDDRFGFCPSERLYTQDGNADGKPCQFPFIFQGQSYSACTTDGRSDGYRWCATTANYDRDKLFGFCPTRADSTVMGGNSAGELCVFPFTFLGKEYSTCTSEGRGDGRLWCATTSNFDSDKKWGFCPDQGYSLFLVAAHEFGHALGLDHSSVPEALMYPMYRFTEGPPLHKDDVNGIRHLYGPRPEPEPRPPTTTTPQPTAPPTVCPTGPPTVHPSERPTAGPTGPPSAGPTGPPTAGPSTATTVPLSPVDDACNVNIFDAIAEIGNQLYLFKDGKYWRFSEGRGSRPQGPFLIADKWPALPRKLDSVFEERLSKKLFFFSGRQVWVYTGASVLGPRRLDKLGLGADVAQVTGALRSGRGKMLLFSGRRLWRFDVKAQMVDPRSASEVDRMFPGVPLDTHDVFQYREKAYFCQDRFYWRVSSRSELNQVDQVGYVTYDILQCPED
Sequence of MMP12h (P39900 106-470): as the sequence (P39900 106-470) above

In the case of `CC(=O)N1CCC[C@H]1C(=O)N[C@@H](C)C(=O)N[C@@H](Cc1ccccc1)P(=O)(O)CC(Cc1cc(-c2ccc(-c3cccc(Cl)c3)cc2)no1)C(=O)N[C@@H](Cc1ccc(O)cc1)C(=O)N[C@@H](C)C(=O)NCC(=O)NCCCOCCOCCOCCCNC(=O)CCOCCOCCOCCOCCOCCOCCOCCOCCOCOCCOCCOCCOCCOCCOCCOCCOCCOCCOCCOCCOCCOCCOCCOCCNC(=O)CCCN1C(=O)C=CC1=O` (stereo partly shown) [Ligand P2], the inhibitory constant (Ki) stood at 0.12 nM at human MMP 8; 0.7 nM at human MMP 14; 0.09 nM on murine MMP12; 0.03 nM on human MMP 13; 0.15 nM at human MMP 2; 1 nM on human MMP 3. Besides, the inhibition constant (Ki) at human MMP 9 was determined as 0.48 nM; on human MMP 12 it was 0.05 nM.
As for `CCC(=O)NOCCOCCOCCOCCOCCOCCOCCOCCOCCOCCOCCOCCOCOCCOCCOCCOCCOCCOCCOCCOCCOCCOCCOCCOCCOCCOCCOCCC(=O)N1CCC[C@H]1C(=O)N[C@@H](C)C(=O)N[C@@H](Cc1ccccc1)P(=O)(O)CC(Cc1cc(-c2ccc(-c3cccc(Cl)c3)cc2)no1)C(=O)N[C@@H](Cc1ccc(O)cc1)C(=O)N[C@@H](C)C(=O)NCC(=O)NCCCOCCOCCOCCCNC(=O)CCCCC1SCC2NC(=O)NC21` (stereo partly shown) [Ligand P3], the Ki at human MMP 8 stood at 0.47 nM; on human MMP 14 it was 1.82 nM; at murine MMP12, 0.66 nM; on human MMP 13 it was 0.07 nM; on human MMP 2, 0.3 nM; on human MMP 3, 1.55 nM. The Ki on human MMP 9 was determined as 0.73 nM; at human MMP 12 it was 0.26 nM.
As to `CC(=O)SCC(=O)NCCOCCOCCOCCOCCOCCOCCOCCOCCOCCOCCOCCOCCOCCOCCOCCOCCOCCOCCOCOCCOCCOCCOCCOCCOCCOCCOCCOCCC(=O)NCCCOCCOCCOCCCNC(=O)CNC(=O)[C@H](C)NC(=O)[C@H](Cc1ccc(O)cc1)NC(=O)C(Cc1cc(-c2ccc(-c3cccc(Cl)c3)cc2)no1)CP(=O)(O)[C@H](Cc1ccccc1)NC(=O)[C@H](C)NC(=O)[C@@H]1CCCN1C(C)=O` (stereo partly shown) [Ligand P1], the Ki on human MMP 8 is 0.09 nM; on human MMP 14, 0.53 nM; at murine MMP12, 0.08 nM; at human MMP 13, 0.017 nM; on human MMP 2, 0.12 nM; on human MMP 3, 0.75 nM. Further, the Ki on human MMP 9 was determined as 0.28 nM; at human MMP 12, 0.03 nM.
Consider `NC(=O)C(CCC(=O)O)NC(=O)C(CCC(=O)O)NC(=O)C(Cc1cc(-c2ccc(-c3cccc(Cl)c3)cc2)no1)CP(=O)(O)c1ccc(Br)cc1` (stereo not shown) [RXP470.1], for which, on MMP12h, the inhibition constant (Ki) is 0.2 nM.

The values are drawn from US20150233926A1, “METHOD FOR SPECIFICALLY DETECTING A MATRIX METALLOPROTEINASE (MMP) WHICH IS ONLY OF INTEREST IN THE ACTIVE FORM THEREOF, IN A SAMPLE” (priority 2012, published 2015).
